Measurements published in patent US8802674B2, “Aminopyrimidine derivatives as LRRK2 modulators” (Genentech, Inc., priority 2011, dated 2014).
pKi: −log10 of the molar value.

Each compound was assayed against LRRK2 (Homo sapiens (Human), UniProt Q5S007, G2019S) (assay: In Vitro LRRK2 LabChip Assay). Conditions: Table 4.
Type: biochemical
Summary of the method: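 Phosphorylated and unphosphorylated peptides were separated by capillary electrophoresis and quantified by fluorescence. Ki came from a tight-binding equation, given in μM.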

Sequence of LRRK2 (Q5S007 970-2527 G2019S limits assumed): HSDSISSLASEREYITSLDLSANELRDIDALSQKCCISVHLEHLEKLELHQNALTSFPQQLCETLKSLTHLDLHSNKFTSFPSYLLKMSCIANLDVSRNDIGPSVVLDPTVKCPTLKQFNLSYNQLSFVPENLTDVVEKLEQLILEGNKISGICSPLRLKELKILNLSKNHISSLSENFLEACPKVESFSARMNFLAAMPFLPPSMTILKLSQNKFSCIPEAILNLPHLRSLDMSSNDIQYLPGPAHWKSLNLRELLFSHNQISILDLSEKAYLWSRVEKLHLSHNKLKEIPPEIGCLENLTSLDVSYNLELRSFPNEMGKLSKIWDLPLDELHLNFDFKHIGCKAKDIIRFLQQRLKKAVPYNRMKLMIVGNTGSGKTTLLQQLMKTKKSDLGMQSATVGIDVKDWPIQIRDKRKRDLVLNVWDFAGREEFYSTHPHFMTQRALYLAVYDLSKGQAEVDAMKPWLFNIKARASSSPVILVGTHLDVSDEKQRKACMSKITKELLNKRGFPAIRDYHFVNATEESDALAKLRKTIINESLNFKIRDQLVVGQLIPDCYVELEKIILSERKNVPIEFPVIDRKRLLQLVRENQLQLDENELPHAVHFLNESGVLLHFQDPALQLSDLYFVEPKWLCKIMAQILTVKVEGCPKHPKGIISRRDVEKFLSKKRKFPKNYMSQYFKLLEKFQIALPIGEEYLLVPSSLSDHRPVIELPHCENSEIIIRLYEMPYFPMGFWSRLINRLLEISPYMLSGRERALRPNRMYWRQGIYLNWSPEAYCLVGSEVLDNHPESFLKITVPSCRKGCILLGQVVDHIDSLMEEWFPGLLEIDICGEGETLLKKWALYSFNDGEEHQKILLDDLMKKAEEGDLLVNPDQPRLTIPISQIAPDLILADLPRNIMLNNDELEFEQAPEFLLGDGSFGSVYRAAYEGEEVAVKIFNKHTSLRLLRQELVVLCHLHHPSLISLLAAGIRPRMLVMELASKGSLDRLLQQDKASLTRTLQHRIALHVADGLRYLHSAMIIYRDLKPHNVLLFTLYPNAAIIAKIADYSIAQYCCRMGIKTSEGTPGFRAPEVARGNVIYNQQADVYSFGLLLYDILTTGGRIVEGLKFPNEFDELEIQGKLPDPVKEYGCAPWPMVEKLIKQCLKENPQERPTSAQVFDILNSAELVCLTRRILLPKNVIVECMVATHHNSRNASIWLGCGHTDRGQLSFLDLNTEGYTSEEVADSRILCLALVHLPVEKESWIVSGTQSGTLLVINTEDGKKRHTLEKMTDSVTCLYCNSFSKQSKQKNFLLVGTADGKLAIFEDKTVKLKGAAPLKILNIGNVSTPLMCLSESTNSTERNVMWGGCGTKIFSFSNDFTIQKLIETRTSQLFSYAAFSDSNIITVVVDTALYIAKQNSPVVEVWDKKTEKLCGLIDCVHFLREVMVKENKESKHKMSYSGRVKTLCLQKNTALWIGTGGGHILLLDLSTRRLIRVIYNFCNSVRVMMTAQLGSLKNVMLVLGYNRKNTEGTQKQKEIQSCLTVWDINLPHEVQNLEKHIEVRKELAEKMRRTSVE

pKi | SMILES
8.49 | CCNc1nc(Nc2ccc(C(=O)N3CCOCC3)cc2OC(F)(F)F)ncc1C(F)(F)F [Example 234, (4-(4-(ethylamino)-5-(trifluoromethyl)pyrimidin-2-ylamino)-3-(trifluoromethoxy)phenyl)(morpholino) methanone]
7.95 | CNc1nc(Nc2ccc(C(=O)N3CCOCC3)cc2OC(F)(F)F)ncc1C(F)(F)F [Example 235, (4-(4-(methylamino)-5-(trifluoromethyl)pyrimidin-2-ylamino)-3-(trifluoromethoxy)phenyl)(morpholino) methanone]
8.38 | [2H]C1([2H])OC([2H])([2H])C([2H])([2H])N(C(=O)c2cc(Cl)c(Nc3ncc(C(F)(F)F)c(NC)n3)cc2OC)C1([2H])[2H] [Example 236, (5-chloro-2-methoxy-4-(4-(methylamino)-5-(trifluoromethyl)pyrimidin-2-ylamino)phenyl) (perdeuteromorpholino) methanone]
8.32 | CNc1nc(Nc2cc(OC)c(C(=O)N3CCOCC3)cc2F)ncc1C(F)(F)F [Example 237, (5-fluoro-2-methoxy-4-(4-(methylamino)-5-(trifluoromethyl)pyrimidin-2-ylamino)phenyl) (morpholino)methanone]
8.85 | CCNc1nc(Nc2cc(OC)c(C(=O)N3CCOCC3)cc2F)ncc1C(F)(F)F [Example 238, (4-(4-(ethylamino)-5-(trifluoromethyl)pyrimidin-2-ylamino)-5-fluoro-2-methoxyphenyl) (morpholino) methanone]
8.54 | CNc1nc(Nc2cc(F)c(C(=O)N3CCOCC3)cc2OC)ncc1C(F)(F)F [Example 239, [2-Fluoro-5-methoxy-4-(4-methylamino-5-trifluoromethyl-pyrimidin-2-ylamino)-phenyl]-moipholin-4-yl-methanone]
8.01 | CCNc1nc(Nc2cc(F)c(C(=O)N(C)C)cc2OC)ncc1C#N [Example 240, 4-(5-Cyano-4-ethylamino-pyrimidin-2-ylamino)-2-fluoro-5-methoxy-N,N-dimethyl-benzamide]
8.74 | CCNc1nc(Nc2ccc(C(=O)N3CCOCC3)c(F)c2OC)ncc1C(F)(F)F [Example 241, (4-(4-(ethylamino)-5-(trifluoromethyl)pyrimidin-2-ylamino)-2-fluoro-3-methoxyphenyl) (morpholino)methanone]
8.55 | CCNc1nc(Nc2ccc(C(=O)N3C[C@@H]4C[C@H]3CO4)c(F)c2OC)ncc1C(F)(F)F [Example 242, (1S,4S)-2-oxa-5-azabicyclo[2.2.1] heptan-5-yl(4-(4-(ethylamino)-5-(trifluoromethyl)pyrimidin-2-ylamino)-2-fluoro-3-methoxyphenyl) methanone]
7.87 | CNc1nc(Nc2ccc(C(=O)N3C[C@H](F)[C@@H](F)C3)cc2OC)ncc1C#N [Example 245, 2-(4-((3S,4S)-3,4-difluoropyrrolidine-1-carbonyl)-2-methoxyphenylamino)-4-(methylamino) pyrimidine-5-carbonitrile]
8.30 | CNc1nc(Nc2cc(OC)c(C(=O)N3CCC(OC)C3)cc2Cl)ncc1C(F)(F)F (stereo not drawn) [Example 246, (5-chloro-2-methoxy-4-(4-(methylamino)-5-(trifluoromethyl)pyrimidin-2-ylammo)phenyl)(3-methoxypyrrolidin-1-yl)methanone]
8.57 | CNc1nc(Nc2cc(F)c(C(=O)N3CCC(OC)C3)cc2OC)ncc1C(F)(F)F (stereo not drawn) [Example 247, (2-fluoro-5-methoxy-4-(4-(methylamino)-5-(trifluoromethyl)pyrimidin-2-ylamino)phenyl)(3-methoxypyrrolidin-1-yl)methanone]
8.04 | CNc1nc(Nc2cc(F)c(C(=O)N(C)CC(C)(C)O)cc2OC)ncc1C(F)(F)F [Example 248, 2-fluoro-N-(2-hydroxy-2-methylpropyl)-5-methoxy-N-methyl-4-(4-(methylamino)-5-(trifluoromethyl)pyrimidin-2-ylamino)benzamide]
8.10 | CNc1nc(Nc2cc(F)c(C(=O)N3C[C@@H](C)O[C@@H](C)C3)cc2OC)ncc1C(F)(F)F [Example 249, ((2S,6R)-2,6-dimethylmorpholino) (2-fluoro-5-methoxy-4-(4-(methylamino)-5-(trifluoromethyl)pyrimidin-2-ylamino)phenyl) methanone]
8.35 | CCNc1nc(Nc2ccc(C(=O)N3CCOCC3)cc2OC(C)C)ncc1C(F)(F)F [Example 252, (4-(4-(ethylamino)-5-(trifluoromethyl)pyrimidin-2-ylamino)-3-isopropoxyphenyl) (morpholino) methanone]
7.92 | COc1cc(C(=O)N2CCOCC2)ccc1Nc1ncc(Cl)c(N2CCCCC2)n1 [Example 254, (4-(5-chloro-4-(piperidin-1-yl)pyrimidin-2-ylamino)-3-methoxyphenyl) (morpholino) methanone]
7.75 | COc1cc(C(=O)N2CCOCC2)ccc1Nc1ncc(Cl)c(N2CCCC2)n1 [Example 255, (4-(5-chloro-4-(pyrrolidin-1-yl)pyrimidin-2-ylamino)-3-methoxyphenyl) (morpholino) methanone]

Same assay, conditions: Table 5

pKi | SMILES
8.70 | CCNc1nc(Nc2cc(F)c(C(=O)N3CCOCC3)cc2OC)ncc1C(F)(F)F [Example 256, [4-(4-Ethylamino-5-trifluoromethyl-pyrimidin-2-ylamino)-2-fluoro-5-methoxy-phenyl]-morpholin-4-yl-methanone]
8.70 | CCNc1nc(Nc2ccc(C(=O)N3CCOCC3)cc2OC)ncc1C(F)(F)F [Example 257]
8.30 | CCNc1nc(Nc2cc(OC)c(C(=O)N3CCOCC3)cc2Cl)ncc1Cl [Example 258, [5-Chloro-4-(5-chloro-4-ethylamino-pyrimidin-2-ylamino)-2-methoxy-phenyl]-morpholin-4-yl-methanone]
7.33 | COc1cc(Nc2ncc(Cl)c(OC)n2)c(Cl)cc1C(=O)N1CCOCC1 [Example 260, [5-Chloro-4-(5-chloro-4-methoxy-pyrimidin-2-ylamino)-2-methoxy-phenyl]-morpholin-4-yl-methanone]
7.33 | COc1nc(Nc2ccc(C(=O)N3CCOCC3)cc2Cl)ncc1Cl [Example 261, [3-Chloro-4-(5-chloro-4-methoxy-pyrimidin-2-ylamino)-phenyl]-morpholin-4-yl-methanone]
7.62 | COc1cc(C(=O)N2CCOCC2)c(Cl)cc1Nc1ncc(C(F)(F)F)c(OC)n1 [Example 262, [2-Chloro-5-methoxy-4-(4-methoxy-5-trifluoromethyl-pyrimidin-2-ylamino)-phenyl]-morpholin-4-yl-methanone]
7.70 | COc1cc(C(=O)N2CCOCC2)ccc1Nc1ncc(C(F)(F)F)c(OC)n1 [Example 263, [3-Methoxy-4-(4-methoxy-5-trifluoromethyl-pyrimidin-2-ylamino)-phenyl]-morpholin-4-yl-methanone]
7.48 | COc1cc(C(=O)N2CCOCC2)ccc1Nc1ncc(Cl)c(OC2CCOCC2)n1 [Example 264, {4-[5-Chloro-4-(tetrahydro-pyran-4-yloxy)-pyrimidin-2-ylamino]-3-methoxy-phenyl}-morpholin-4-yl-methanone]

Same assay, conditions: Table 6

pKi | SMILES
8.38 | CNc1nc(Nc2cc(OC)c(C(=O)NC3(C#N)CC3)cc2Cl)ncc1C(F)(F)F [Example 265, 5-Chloro-N-(1-cyano-cyclopropyl)-2-methoxy-4-(4-methylamino-5-trifluoromethyl-pyrimidin-2-ylamino)-benzamide]
8.10 | CNc1nc(Nc2cc(OC)c(C(=O)N3CC(C)OC(C)C3)cc2Cl)ncc1C(F)(F)F (stereo not drawn) [Example 267, [5-Chloro-2-methoxy-4-(4-methylamino-5-trifluoromethyl-pyrimidin-2-ylamino)-phenyl]-(2,6-dimethyl-morpholin-4-yl)-methanone]
7.72 | COc1cc(C(=O)N2CCOCC2)ccc1Nc1ncc(C(F)(F)F)c(N2CCCC2)n1 [Example 268, [3-Methoxy-4-(4-pyrrolidin-1-yl-5-trifluoromethyl-pyrimidin-2-ylamino)-phenyl]-morpholin-4-yl-methanone]
8.43 | CNc1nc(Nc2ccc(C(=O)NC3COC3)cc2OC)ncc1C(F)(F)F [Example 271, 3-Methoxy-4-(4-methylamino-5-trifluoromethyl-pyrimidin-2-ylamino)-N-oxetan-3-yl-benzamide]
8.77 | CNc1nc(Nc2ccc(C(=O)N3CC4CCC(C3)O4)cc2OC)ncc1C(F)(F)F [Example 272, [3-Methoxy-4-(4-methylamino-5-trifluoromethyl-pyrimidin-2-ylamino)-phenyl]-(8-oxa-3-aza-bicyclo[3.2.1]oct-3-yl)-methanone]
8.39 | CNc1nc(Nc2ccc(C(=O)N3CCCC3)cc2OC)ncc1C(F)(F)F [Example 274, [3-Methoxy-4-(4-methylamino-5-trifluoromethyl-pyrimidin-2-ylamino)-phenyl]-pyrrolidin-1-yl-methanone]
8.48 | CCN(CC)C(=O)c1ccc(Nc2ncc(C(F)(F)F)c(NC)n2)c(OC)c1 [Example 275, N,N-Diethyl-3-methoxy-4-(4-methylamino-5-trifluoromethyl-pyrimidin-2-ylamino)-benzamide]
9.10 | CNc1nc(Nc2ccc(C(=O)N3CCC(N(C)C)CC3)cc2OC)ncc1C(F)(F)F [Example 276, (4-Dimethylamino-piperidin-1-yl)-[3-methoxy-4-(4-methylamino-5-trifluoromethyl-pyrimidin-2-ylamino)-phenyl]-methanone]
8.31 | CNc1nc(Nc2ccc(C(=O)N3CC(C)OC(C)C3)cc2OC)ncc1C(F)(F)F (stereo not drawn) [Example 277, (2,6-Dimethyl-morpholin-4-yl)-[3-methoxy-4-(4-methylamino-5-trifluoromethyl-pyrimidin-2-ylamino)-phenyl]-methanone]
8.77 | CNc1nc(Nc2ccc(C(=O)N3CCC(C#N)CC3)cc2OC)ncc1C(F)(F)F [Example 278, 1-[3-Methoxy-4-(4-methylamino-5-trifluoromethyl-pyrimidin-2-ylamino)-benzoyl]-piperidine-4-carbonitrile]

SMILES | pKi
CNc1nc(Nc2ccc(C(=O)N3CCOCC3)cc2OC2CCC2)ncc1C(F)(F)F [Example 269, [3-Cyclobutoxy-4-(4-methylamino-5-trifluoromethyl-pyrimidin-2-ylamino)-phenyl]-morpholin-4-yl-methanone] | 8.60
